The source of these data is patent US8048879B2, “Substituted 4,5,6,7-tetrahydro-isoxazolo[4,5-c]pyridine compounds and use thereof for producing medicaments” (Gruenenthal GmbH, priority 2005, dated 2011).

Molecules are shown by their SMILES.

T1 sequence (P31652 whole entry): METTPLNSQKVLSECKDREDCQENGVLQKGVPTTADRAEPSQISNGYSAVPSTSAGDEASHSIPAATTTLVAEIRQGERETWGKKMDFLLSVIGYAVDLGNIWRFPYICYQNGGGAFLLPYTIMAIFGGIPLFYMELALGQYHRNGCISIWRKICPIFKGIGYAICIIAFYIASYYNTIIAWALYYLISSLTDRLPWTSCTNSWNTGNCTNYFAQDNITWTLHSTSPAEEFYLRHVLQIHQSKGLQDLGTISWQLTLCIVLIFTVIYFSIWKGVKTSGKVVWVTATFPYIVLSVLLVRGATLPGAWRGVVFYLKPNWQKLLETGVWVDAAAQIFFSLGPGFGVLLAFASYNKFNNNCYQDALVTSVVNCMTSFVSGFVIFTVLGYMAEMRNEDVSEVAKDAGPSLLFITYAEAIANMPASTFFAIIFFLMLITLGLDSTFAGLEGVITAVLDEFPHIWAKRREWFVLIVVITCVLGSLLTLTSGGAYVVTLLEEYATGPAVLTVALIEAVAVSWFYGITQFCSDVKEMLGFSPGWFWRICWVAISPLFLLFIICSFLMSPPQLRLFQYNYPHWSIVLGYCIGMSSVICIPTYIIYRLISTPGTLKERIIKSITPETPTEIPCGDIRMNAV

One assay has as its target T1, 5-HT transporter (Rattus norvegicus, UniProt P31652).
T1 construct: from tissue; host or cells: rat brain (medulla and pons), synaptosomes, P2 fraction
The assay is described as follows: 5-HT uptake inhibition, synaptosomes from rat brain (medulla and pons). The class given is biochemical.
Details: not given
From the text: b) Method for Determining Noradrenalin and 5-HT Uptake Inhibition:
Synaptosomes from rat brain regions are freshly isolated for in vitro studies, as described in the publication “The isolation of nerve endings from brain” by E. G. Gray and V. P. Whittaker, J. Anatomy 96, pages 79-88, 1962. The corresponding literature description is hereby introduced as a reference and is deemed to be part of the disclosure.
The tissue (hypothalamus for the determination of noradrenalin uptake inhibition and medulla and pons for the determination of 5-HT uptake inhibition) is homogenised in ice-cooled 0.32 M sucrose (100 mg of tissue/1 mL) in a glass homogeniser with Teflon pestle using five complete up and down strokes at 840 revolutions/minute.
The homogenate is centrifuged at 4° C. for 10 minutes at 1000 g. After subsequent centrifugation at 17000 g for 55 minutes, the synaptosomes (P2 fraction) are obtained, which are resuspended in 0.32 M […] (0.5 mL/100 mg of original weight).
The particular uptake is measured in a 96-well microtitre plate. The volume is 250 μL and the incubation proceeds at room temperature (approx. 20-25° C.) under an O2 atmosphere.
The incubation time is 7.5 minutes for [^3H]-NA and 5 minutes for [^3H]-5-HT. The 96 samples are then filtered through a Unifilter GF/B® microtitre plate (Packard) and washed with 200 mL of incubated buffer using a “Brabdel MPXRI-96T Cell-Harvester”. The Unifilter GF/B plate is dried for 1 hour at 55° C. The plate is then sealed with a Back Seal® (Packard) and 35 μL of scintillation fluid are added per well (Ultima Gold®, Packard). After sealing with a top Seal® (Packard) and establishing an equilibrium (around 5 hours), radioactivity is determined in a “Trilux 1450 Microbeta” (Wallac).
The quantity of protein used in the above determination corresponds to the values known from the literature, as for example described in “Protein measurement with the folin phenol reagent”, Lowry et al., J. Biol. Chem., 193, 265-275, 1951.
A detailed description of the method may additionally be found in the literature, for example in M. Ch. Frink, H.-H. Hennies, W. Engelberger, M. Haurand and B. Wilffert (1996) Arzneim.-Forsch./Drug Res. 46 (III), 11, 1029-1036.
The following characteristics were determined for the NA or 5-HT transporter: […]
On to `CN(C)CCNC(=O)c1noc2c1CN(C(=O)COc1ccccc1)CC2` [Example 37, 5-(2-phenoxy-acetyl)-4,5,6,7-tetrahydro-isoxazolo[4,5-c]pyridine-3-carboxylic acid (2-dimethylamino-ethyl) amide], for which at 10 µM the inhibition was 61%. Still for that read-out and setting: next, `CC(C)(C)OC(=O)NC(COCc1ccccc1)C(=O)N1CCc2onc(C(=O)NCc3cccnc3)c2C1` (centres unmarked) [Example 27, (1-benzyloxymethyl-2-oxo-2-{3-[(pyridin-3-ylmethyl)-carbamoyl]-6,7-dihydro-4H-isoxazolo[4,5-c]pyridin-5-yl}-ethyl)-carbamic acid tert-butyl ester]: 41%. Same read-out and setting: next, `O=C(O)COCC(=O)N1CCc2onc(C(=O)NCc3cccs3)c2C1` [Example 30, (2-oxo-2-{3-[(thiophen-2-ylmethyl)-carbamoyl]-6,7-dihydro-4H-isoxazolo[4,5-c]pyridin-5-yl}-ethoxy)acetic acid]: 57%; `COc1ccc(C(=O)N2CCc3onc(C(=O)NCCN(C)C)c3C2)cc1` [Example 58, 5-(4-methoxy-benzoyl)-4,5,6,7-tetrahydro-isoxazolo[4,5-c]pyridine-3-carboxylic acid (2-dimethylamino-ethyl) amide]: 81%.

Molecule `COc1ccc(OCCNC(=O)c2noc3c2CN(S(=O)(=O)c2ccccc2)CC3)cc1` [Example 106, 5-benzenesulfonyl-4,5,6,7-tetrahydro-isoxazolo[4,5-c]pyridine-3-carboxylic acid [2-(4-methoxy-phenoxy)-ethyl] amide] came in with an inhibition at 10 µM of 76%. Still for that read-out and setting: next, `CC(C)CNC(=O)c1noc2c1CN(C(=O)C(NC(=O)OCc1ccccc1)c1ccccc1)CC2` (centres unmarked) [Example 126, [2-(3-isobutylcarbamoyl-6,7-dihydro-4H-isoxazolo[4,5-c]pyridin-5-yl)-2-oxo-1-phenyl-ethyl]-carbamic acid benzyl ester]: 80%. Regarding `CCC(C)(CC(=O)O)CC(=O)N1CCc2onc(C(=O)NCCOC)c2C1` (centres unmarked) [Example 26, 3-ethyl-5-[3-(2-methoxy-ethylcarbamoyl)-6,7-dihydro-4H-isoxazolo[4,5-c]pyridin-5-yl]-3-methyl-5-oxo-pentanoic acid], the inhibition at 10 µM was found to be 54%. Same read-out and setting: next, `CCOC(=O)CCNC(=O)c1noc2c1CN(C(=O)Nc1cc(OC)ccc1OC)CC2` [Example 20, 3-{[5-(2,5-dimethoxy-phenylcarbamoyl)-4,5,6,7-tetrahydro-isoxazolo[4,5-c]pyridine-3-carbonyl]-amino}-propionic acid ethyl ester]: 51%; `Cc1nn(-c2ccccc2)nc1C(=O)N1CCc2onc(C(=O)NCc3cccnc3)c2C1` [Example 46, 5-(5-methyl-2-phenyl-2H-[1,2,3]triazole-4-carbonyl)-4,5,6,7-tetrahydro-isoxazolo[4,5-c]pyridine-3-carboxylic acid (pyridin-3-ylmethyl) amide]: 79%; `Cc1ccc(S(=O)(=O)N2CCc3onc(C(=O)NC4CCN(Cc5c(Cl)cccc5Cl)C4)c3C2)cc1` (centres unmarked) [Example 91, 5-(toluene-4-sulfonyl)-4,5,6,7-tetrahydro-isoxazolo[4,5-c]pyridine-3-carboxylic acid [1-(2,6-dichloro-benzyl)-pyrrolidin-3-yl] amide]: 67%. The same measure, in the same setting: next, `CC(C)CNC(=O)c1noc2c1CN(C(=O)c1cc(C(F)(F)F)ccc1Cl)CC2` [Example 116, 5-(2-chloro-5-trifluoromethyl-benzoyl)-4,5,6,7-tetrahydro-isoxazolo[4,5-c]pyridine-3-carboxylic acid isobutyl amide]: 77%; `O=C(NC1CCc2ccccc21)c1noc2c1CN(S(=O)(=O)c1ccccc1)CC2` (centres unmarked) [Example 61, 5-benzenesulfonyl-4,5,6,7-tetrahydro-isoxazolo[4,5-c]pyridine-3-carboxylic acid indan-1-yl amide]: 64%; `CN(C)CCNC(=O)c1noc2c1CN(C(=O)CCCOc1ccccc1)CC2` [Example 99, 5-(4-phenoxy-butyryl)-4,5,6,7-tetrahydro-isoxazolo[4,5-c]pyridine-3-carboxylic acid (2-dimethylamino-ethyl) amide]: 69%. As for `CCOC(=O)c1cccc(NC(=O)N2CCc3onc(C(=O)NCc4ccc(C)o4)c3C2)c1` [Example 23, 3-({3-[(5-methyl-furan-2-ylmethyl)-carbamoyl]-6,7-dihydro-4H-isoxazolo[4 5-c]pyridine-5-carbonyl}-amino)-benzoic acid ethyl ester], the “5-HT uptake (rat), 10 μM, % inhibition” value is 52%. `CN(CCCNC(=O)c1noc2c1CN(S(=O)(=O)c1ccc(OC(F)(F)F)cc1)CC2)c1ccccc1` [Example 80, 5-(4-trifluoromethoxy-benzenesulfonyl)-4,5,6,7-tetrahydro-isoxazolo[4,5-c]pyridine-3-carboxylic acid [3-(methylphenyl-amino)-propyl] amide] gave an inhibition at 10 µM of 65%. The same measure, in the same setting: next, `CN(C)S(=O)(=O)N1CCc2onc(C(=O)NCc3ccc(C(F)(F)F)c(F)c3)c2C1` [Example 107, 5-dimethylsulfamoyl-4,5,6,7-tetrahydro-isoxazolo[4,5-c]pyridine-3-carboxylic acid 3-fluoro-4-trifluoromethyl-benzyl amide]: 61%. In the case of `O=C(Nc1ccccc1)c1noc2c1CN(C(=O)Nc1ccc(OC(F)(F)F)cc1)CC2` [Example 3, 6,7-dihydro-4H-isoxazolo[4,5-c]pyridine-3,5-dicarboxylic acid 3-phenyl amide 5-[(4-trifluoromethoxy-phenyl) amide]], the “5-HT uptake (rat), 10 μM, % inhibition” value came out at 45%.

As for `Cc1ccc(NC(=O)N2CCc3onc(C(=O)NCc4cccs4)c3C2)cc1[N+](=O)[O-]` [Example 9, 6,7-dihydro-4H-isoxazolo[4,5-c]pyridine-3,5-dicarboxylic acid 5-[(4-methyl-3-nitro-phenyl) amide] 3-[(thiophen-2-ylmethyl) amide]], the “5-HT uptake (rat), 10 μM, % inhibition” value is reported as 45%.

`CN(C)CCNC(=O)c1noc2c1CN(C(=O)C=Cc1ccccc1)CC2` [Example 36, 5-(3-phenyl-acryloyl)-4,5,6,7-tetrahydro-isoxazolo[4,5-c]pyridine-3-carboxylic acid (2-dimethylamino-ethyl) amide]: the inhibition at 10 µM came to 72%. The molecule `COc1ccc(S(=O)(=O)N2CCc3onc(C(=O)NC(CCC(=O)OC(C)(C)C)C(N)=O)c3C2)cc1` (centres unmarked) [Example 88, 4-carbamoyl-4-{[5-(4-methoxy-benzenesulfonyl)-4,5,6,7-tetrahydro-isoxazolo[4,5-c]pyridine-3-carbonyl]-amino}-butanoic acid tert-butyl ester] gave an inhibition at 10 µM of 62%. Still for that read-out and setting: next, `CN(C)CCNC(=O)c1noc2c1CN(C(=O)c1cccc(OC(F)(F)F)c1)CC2` [Example 119, 5-(3-trifluoromethoxy-benzoyl)-4,5,6,7-tetrahydro-isoxazolo[4,5-c]pyridine-3-carboxylic acid (2-dimethylamino-ethyl) amide]: 73%; `O=C(NCCN1CCOCC1)c1noc2c1CN(S(=O)(=O)c1cccs1)CC2` [Example 57, 5-(thiophene-2-sulfonyl)-4,5,6,7-tetrahydro-isoxazolo[4,5-c]pyridine-3-carboxylic acid (2-morpholin-4-yl-ethyl) amide]: 63%. As to `CCOC(=O)CCNC(=O)c1noc2c1CN(C(=O)Nc1cc(F)ccc1F)CC2` [Example 6], the “5-HT uptake (rat), 10 μM, % inhibition” value was 43%. `Cc1nn(-c2ccccc2)nc1C(=O)N1CCc2onc(C(=O)NCc3ccc(F)cc3)c2C1` [Example 72, 5-(5-methyl-2-phenyl-2H-[1,2,3]triazole-4-carbonyl)-4,5,6,7-tetrahydro-isoxazolo[4,5-c]pyridine-3-carboxylic acid 4-fluorobenzyl amide] came in with an inhibition at 10 µM of 70%. Still for that read-out and setting: next, `Cc1cc(C(=O)N2CCc3onc(C(=O)NCCN4CCOCC4)c3C2)ccc1Br` [Example 90, 5-(4-bromo-3-methyl-benzoyl)-4,5,6,7-tetrahydro-isoxazolo[4,5-c]pyridine-3-carboxylic acid (2-morpholin-4-yl-ethyl) amide]: 65%.

The same assay, now with this note: 10 µM.
Consider `Cc1ccc(S(=O)(=O)N2CCc3onc(C(=O)NCc4ccc(S(N)(=O)=O)cc4)c3C2)cc1` [Example 56, 5-(toluene-4-sulfonyl)-4,5,6,7-tetrahydro-isoxazolo[4,5-c]pyridine-3-carboxylic acid 4-sulfamoyl-benzyl amide], for which the “5-HT uptake (rat), 10 μM, % inhibition” value worked out at 96%.

Usually inhibition stands for the relative decrease from the control value, in per cent.
